Tested on: P. berghei sporozoites
Assay: Host cell-free transformation of sporozoites into EEFs (liver stages)
Type: cell-based
Conditions: Plasmodium berghei; lactacystin 10 μM in the culture medium
Description: Transformation medium and quantification of transformation: Sporozoites were suspended in DMEM medium (BioWhittaker) containing 2 mM of L-glutamine, 4.5 g/l glucose and supplemented with 10% Fetal Bovine Serum (FBS; HyClone) and 500 U/ml penicillin/streptomycin and 1.25 μl/ml fungizon (Sigma). For the generation of Plasmodium axenic liver stages, 5×10^4 sporozoites were inoculated per well of a 8 well chamber slide (Labtek) and maintained at 37° C. in 5% CO2. Initially, slides were coated with Matrigel (Becton Dickinson) at density of 100 μg/cm^2 to improve the development. Matrigel improved attachment of the parasites to the slide, but was not essential for transformation.
To determine transformation rates for various conditions and slides, the host cell-free cultures of GFP-expressing P. berghei sporozoites were examined by fluorescence microscopy at 400× magnification using an Eclipse TE 300 fluorescence microscope (Nikon, Inc.) using a green filter (excitation wavelength 495 nm/emission wavelength 519 nm). EEFs were scored as completely transformed only when they appeared completely spherical with no sporozoite remnants visible. Each count was performed in triplicate on three independent experiments done with sporozoites isolated from different batches of infected mosquitoes.

CC(=O)N[C@@H](CSC(=O)[C@]1([C@@H](O)C(C)C)NC(=O)[C@H](C)[C@@H]1O)C(=O)O [lactacystin]
inhibition at 10 µM: ~70%

Source: patent US20050233435A1, “Plasmodium axenic liver stages as a noninfectious whole organism malaria vaccine” (priority 2003, published 2005)
